Measured values taken from US20240390377A1, “COMPOSITION FOR THE PREVENTION OR TREATMENT OF NEURODEGENERATIVE OR MOTOR NEURON DISEASES COMPRISING HALOFUGINONE AS AN ACTIVE INGREDIENT” (CURAMYS CO., LTD., priority 2022, published 2024).

Test system: G93A mutant SOD1 transgenic mice
Test: Western blot analysis of lumbar spinal cord in ALS animal model
Format: in vivo, mouse
Method: As a control group, non-transgenic mice were injected intraperitoneally (i.p.) with vehicle (DMSO) in the same manner for the same period of time.
Specifically, the lumbar spinal cord or knee joint of the mouse of Example 6 was separated and immediately frozen at −80° C. Each lumbar spinal cord or knee joint was then homogenized and chemically treated to obtain cells. The chemically treated cells, the C2C12 cells of Example 1 or the fibroblasts of Example 5 were dissolved in a RIPA buffer (Thermo, MA, USA) with a protease inhibitor and a phosphatase inhibitor (Roche, IN, USA) and incubated on ice for 30 minutes. After centrifugation of the lysate at 13,000 rpm at 4° C. for 20 min, insoluble substances were removed. Protein concentrations were measured by BCA analysis (Pierce Biotechnology). Equal volumes of cell lysate were loaded onto SDS-PAGE gels for electrophoresis, and transferred onto nitrocellulose membranes (Amersham Protran 0.2 um NC, Amersham Pharmacia Biotech, Piscataway, NJ, USA). The membranes were then blocked with 5% (w/v) skimmilk in 1×TBST for 1 h at room temperature. After blocking, anti-RB-actin antibody (1:5000; Santa Cruz, cat #sc47778), anti-Smad2 antibody (1:1000; Cell Signaling, cat #5339), anti-p-Smad2 antibody (1:1000; Cell Signaling, cat #3108), anti-TGF-β1 antibody (1:1000; Santa Cruz, cat #sc130348), anti-α-SMA antibody (1:10000; abcam cat #ab7817), anti-MyoD antibody (1:1000; cat #sc377460), anti-collagen|antibody (1:1000; abcam cat #ab21286), anti-cleaved caspase-3 antibody (1:1000; Cell Signaling, cat #9661), anti-bax antibody (1:500; Santa Cruz, cat #sc493), anti-bcl2 antibody (1:1000; Novus Biologics, cat #NB100-56098), anti-ChAT antibody (1:1000; Millipore, cat #AB144) were treated and incubated overnight at 4° C. […] The membranes were then washed, briefly incubated with the SuperSignal West Pico Plus Chemical Substructure (Pierce Biotechnology) according to the manufacturer's procedure, and quantified with an image analyzer (Amersham Pharmacia Biotech, Piscataway, NJ, USA). β-actin was used as an internal control group. The concentration measurement of protein intensity was quantified using Image J (National Institutes of Health).
In addition, to investigate the motor neuron source of the spinal cord, motor neurons of the lumbar spinal cord were observed and counted in the same manner as described in Example 9 (FIG. 9d), and real-time qRT-PCR and Western blot analysis were performed in the same manner as described in Example 11 and Example 12 to quantitatively analyze the expression of ChAT mRNA (FIG. 9e) and ChAT protein (FIG. 9f). […]

[1] = 120 days of age, change in DMSO TG vs DMSO Non-TG (FIG. 11b)

O=C(C[C@H]1NCCC[C@@H]1O)Cn1cnc2cc(Br)c(Cl)cc2c1=O (racemic) [halofuginone]
ChAT expression (protein) in lumbar spinal cord (120-day-old mice, compared to DMSO Non-TG group (FIG. 9f)): preserved similarly
decreased protein expression of bcl-2 in lumbar spinal cord [1]: improved
increased protein expression of bax in lumbar spinal cord [1]: improved
increased protein expression of cleaved caspase-3 in lumbar spinal cord [1]: improved
